Reference: publication PMC8733726, “Dioctanoyl Ultrashort Tetrabasic β-Peptides Sensitize Multidrug-Resistant Gram-Negative Bacteria to Novobiocin and Rifampicin” (Frontiers in Microbiology, 2021)
≈ marks a conversion by molar mass, not a printed value. Where two headings read alike, the source gives them in different places.

Legend:
MDR K. pneumoniae = type: cell-based, Klebsiella pneumoniae; settings: MDR, 18 h
Description: (§1) The adjuvant activities of dUSTBβPs were evaluated using checkerboard assay as previously described ([Berry et al., 2019]). Overnight-grown bacterial culture diluted in saline to 0.5 McFarland turbidity was successively diluted 1:50 in MHB to achieve a final concentration of 5 × 10^5 CFU/mL for inoculation. The antibiotic and adjuvant were serially diluted 2-fold along the x-axis and y-axis, respectively, resulting in varying concentrations of both agents in each well. Subsequently, the 96-well plate was incubated with equal volumes of bacterial inoculum at 37°C for 18 h. Confirmation of turbidity was done using an EMax Plus microplate reader (Molecular Devices, United States) at a wavelength of 590 nm. Wells comprising MHB alone or in the presence of bacterial cells were used as negative or positive controls, respectively. Fractional inhibitory concentration index (FICI) is determined by adding the FICs of both antibiotic and adjuvant. The FIC of the antibiotic is calculated by dividing the MIC of the antibiotic in the presence of the adjuvant by the MIC of the antibiotic alone. Similarly, the FIC of the adjuvant is calculated by dividing the MIC of the adjuvant in the presence of the antibiotic by the MIC of the adjuvant alone. FICI ≤ 0.5, 0.5 < x ≤ 4, and >4 were deemed synergistic, additive, and antagonistic, respectively ([Meletiadis et al., 2010]).

A. baumannii ATCC 17978 [1] = type: cell-based, Acinetobacter baumannii; settings: not told
Description: (§2) The ability of dUSTBβP 3 to permeabilize the OM of Acinetobacter baumannii ATCC 17978 and Escherichia coli ATCC 25922 was assessed using 1-N-phenylnaphthylamine (NPN) as previously described with minor modifications ([Yang et al., 2017]; [Akhoundsadegh et al., 2019]). Overnight grown culture was subcultured (1 in 100) in fresh LB broth and grown to a mid-logarithmic phase (OD600 = 0.4–0.6). […] NPN (10 μM final concentration) was added to a black 96-well plate containing the cell culture and incubated in 5 mM HEPES (pH 7.2) supplemented with 5 mM glucose and 5 μM carbonyl cyanide 3-chlorophenylhydrazone at room temperature for 30 min in darkness. Varying concentrations of compound were added onto the suspension, and the resulting change in NPN fluorescence was measured continuously (every 30 s) on a SpectraMax M2 microplate reader (Molecular Devices, United States) at an excitation wavelength of 350 nm and an emission wavelength of 420 nm. Cells with NPN and the OM permeabilizer PMBN served as a positive control, while cells with NPN alone served as a negative control. Three replicates were conducted, and the data were corrected for any background fluorescence.

in vitro [2] = settings: human, plasma
Description: Stability of dUSTBβP 3 was evaluated in human plasma. […] The supernatant was analyzed by HPLC-tandem mass spectrometry using selected reaction monitoring. The % compound remaining was determined by comparing peak areas at different time points to time zero. Assuming first-order kinetics, the half-life was extrapolated from the slope of the initial linear range of the logarithmic curve of compound remaining over time. Experiments were performed in duplicates, and the reference compounds include propantheline and propoxycaine.

in vitro [3] = type: cell-based; settings: human
Description: The degree of hemolysis induced by dUSTBβPs was determined by the amount of hemoglobin released from human erythrocytes upon incubation. Fresh human blood supplied by a commercial vendor was obtained from normal healthy volunteers following informed consent. The agent of interest was serially diluted in vehicle consisting of phosphate-buffered saline (PBS), saline, 5% glucose, or equivalents. The samples were incubated with gentle mixing at 37°C for 45 min and were subsequently centrifuged. The supernatant (plasma layer) was removed and centrifuged once more to completely pellet the cells. The plasma layer was diluted with Drabkin’s reagent and analyzed at a wavelength of 540 nm. Experiments were conducted in triplicates, and a calibration curve prepared by diluting blood (after addition of vehicle) was used to quantitate heme release. The vehicle or Triton X-100 were used as negative or positive controls, respectively.

E. coli ATCC 25922 [4] = type: cell-based, Escherichia coli; settings: not told
Description: as §2

[5] = tested on: MDR clinical isolates of A. baumannii; type: cell-based, Acinetobacter baumannii; settings: MDR clinical isolates of, 18 h
Description: as §1

[6] = tested on: wild-type E. coli ATCC 25922; assay: microbe, parasite or virus in culture; type: cell-based, Escherichia coli
Summary of the method: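 Antibiotic and adjuvant were serially diluted 2-fold against each other in MHB, inoculated at 5 × 10^5 CFU/mL and incubated at 37°C for 18 h. Growth was read as turbidity at 590 nm. FICI was the sum of each agent's combination MIC divided by its MIC alone; ≤ 0.5 counted as synergy.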

E. coli ATCC 25922 [7] = type: cell-based, Escherichia coli; settings: ATCC 25922, 18 h
Description: (§3) The in vitro antibacterial activities of dUSTBβPs were evaluated using microbroth dilution susceptibility test, in accordance with the Clinical and Laboratory Standards Institute (CLSI) guidelines ([Clinical and Laboratory Standards Institute, 2019]). Overnight-grown bacterial culture diluted in saline to 0.5 McFarland turbidity was successively diluted 1:50 in Mueller-Hinton broth (MHB) to achieve a final concentration of 5 × 10^5 colony forming units (CFU)/mL for inoculation. The agents were serially diluted 2-fold in MHB on a 96-well plate; mixed with bacterial inoculum of equal volumes, and incubated at 37°C for 18 h. Antibacterial activity was determined by the minimum inhibitory concentration (MIC), which is the lowest concentration of agent required for inhibition of visible bacterial growth in the form of turbidity. Confirmation of turbidity was done using an EMax Plus microplate reader (Molecular Devices, United States) at a wavelength of 590 nm. Wells comprising MHB alone or MHB inoculated with bacteria were used as negative or positive controls, respectively.

Cell viability assay = type: cell-based; settings: human
Description: (§4) Cell viability assay was performed essentially as previously described ([[…] et al., 2019]). […] The cells were detached with trypsin and equal numbers of cells (8,000 cells in 50 μL) were dispersed into five rows of each column in 96-well plate; the remaining three rows of each column, designated as blanks, received 50 μL of the media without cells. After 24 h incubation, aliquots of 50 μL of dUSTBβP 3 at varying concentrations were added to each well and incubated for 48 h. […] Values from the wells without cells (blank wells) were subtracted from the corresponding sample wells and cell viability values of the treated samples relative to the vehicle controls set to 100% was determined. […] The results represent the mean ± SD of two independent experiments with five samples per experiment. […] Colistin was used as a negative control and doxorubicin, an anticancer drug, was used as a positive control.

A. baumannii ATCC 17978 [8] = type: cell-based, Acinetobacter baumannii; settings: ATCC 17978, 18 h
Description: as §3

P. aeruginosa PAO1 = type: cell-based, Pseudomonas aeruginosa; settings: PAO1, 18 h
Description: as §3

in vitro [9] = type: cell-based; settings: human; remark: listed apart in the source
Description: as §4

[10] = cited from earlier work
[11] = tested on: MDR P. aeruginosa clinical isolates; assay: Resistance phenotype (MICs of antibiotics) of MDR clinical isolates; type: cell-based, Pseudomonas aeruginosa
[12] = tested on: wild-type A. baumannii ATCC 17978; assay: Checkerboard assay; type: cell-based, Acinetobacter baumannii; settings: ATCC 17978
Summary of the method: (§5)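 Checkerboard in MHB with 5 × 10^5 CFU/mL inoculum, antibiotic and adjuvant each serially 2-fold diluted on crossed axes. Growth read as turbidity at 590 nm; FICI is the sum of each agent's MIC in combination divided by its MIC alone.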

[13] = tested on: MDR E. cloacae clinical isolates; assay: Resistance phenotype (MICs of antibiotics) of MDR clinical isolates; type: cell-based, Enterobacter cloacae
[14] = tested on: wild-type P. aeruginosa PAO1; assay: microbe, parasite or virus in culture; type: cell-based, Pseudomonas aeruginosa; settings: PAO1
Summary of the method: as §5

[15] = tested on: MDR A. baumannii clinical isolates; assay: Resistance phenotype (MICs of antibiotics) of MDR clinical isolates; type: cell-based, Acinetobacter baumannii
[16] = tested on: MDR K. pneumoniae clinical isolates; assay: as above; type: cell-based, Klebsiella pneumoniae
[17] = tested on: MDR E. coli clinical isolates; assay: as above; type: cell-based, Escherichia coli
[18] = antibiotic alone (Supplementary Table 7)
[19] = antibiotic with dUSTBβP 3 at 8 μg/mL

## CCCCCCCC(=O)NC(CCCNC(=N)N)CC(=O)NCCCN(CCCNC(=O)CC(CCCNC(=N)N)NC(=O)CCCCCCC)CC(=O)NC(CCCNC(=N)N)CC(N)=O (stereo not drawn) [dUSTBβP 3]
MDR K. pneumoniae
  FICI: < 0.156
A. baumannii ATCC 17978 [1]
  OM permeabilization, NPN fluorescence: dose-dependently permeabilizes the OM
In vitro [2]
  half-life at 1 μM: 10.4 ± 3.7 h
  remaining at 2 h, 1 μM: 86.8 ± 3.7%
In vitro [3]
  hemolysis at 45 min, 1.5625 µM: 3.23 ± 0.08%
  hemolysis at 45 min, 3.125 µM: 3.32 ± 0.16%
  hemolysis at 45 min, 6.25 µM: 3.18 ± 0.05%
  hemolysis at 45 min, 12.5 µM: 3.28 ± 0.12%
  hemolysis at 45 min, 25 µM: 3.35 ± 0.09%
  hemolysis at 45 min, 50 µM: 3.43 ± 0.49%
  hemolysis at 45 min, 100 µM: 4.17 ± 1.29%
  hemolysis at 45 min, 200 µM: 4.59 ± 2.42%
E. coli ATCC 25922 [4]
  OM permeabilization, NPN fluorescence: dose-dependently permeabilizes the OM
[5]
  MIC of compound alone: 16 µg/mL
[6]; ATCC 25922, 18 h
  FICI: 0.064
E. coli ATCC 25922 [7]
  MIC: 128 µg/mL (≈ 135 µM)
Cell viability assay
  CC50 at 48 h: 101 µM
A. baumannii ATCC 17978 [8]
  MIC: >128 µg/mL
P. aeruginosa PAO1
  MIC: 128 µg/mL (≈ 135 µM)
In vitro [9]
  viability at 48 h, 125 µM: 86.4 ± 8.7%

## COc1cccc2c1C(=O)c1c(O)c3c(c(O)c1C2=O)C[C@@](O)(C(=O)CO)C[C@@H]3O[C@H]1C[C@H](N)[C@H](O)[C@H](C)O1 [doxorubicin]
Cell viability assay
  CC50 at 48 h: 0.032 µM
In vitro [9]
  viability at 48 h, 1 µM: 16.6 ± 2.3%

## CCCCCCCCCCNCCN[C@@]1(C)C[C@H](O[C@H]2[C@H](Oc3c4cc5cc3Oc3ccc(cc3Cl)[C@@H](O)[C@@H](NC(=O)[C@@H](CC(C)C)NC)C(=O)N[C@@H](CC(N)=O)C(=O)N[C@H]5C(=O)N[C@H]3C(=O)N[C@H](C(=O)N[C@H](C(=O)O)c5cc(O)c(CNCP(=O)(O)O)c(O)c5-c5cc3ccc5O)[C@H](O)c3ccc(c(Cl)c3)O4)O[C@H](CO)[C@@H](O)[C@@H]2O)O[C@@H](C)[C@H]1O [telavancin]
[10]; ref Chen and Lu, 2020
  In vivo elimination half-life: 8 h

## Colistin
[11]; 259-96196
  MIC: 1 µg/mL
[11]; 262-101856
  MIC: 1 µg/mL
[11]; 264-104354
  MIC: 1 µg/mL
[11]; 91433
  MIC: 4 µg/mL
[11]; 114228
  MIC: 4 µg/mL
[12]; [18]
  MICantibiotic: 0.5
[12]; [19]
  MICcombo: 0.25 µg/mL
[10]; in vivo
  In vivo elimination half-life: 5 h
[13]; 117029
  MIC: 0.25 µg/mL
[13]; 118564
  MIC: > 16 µg/mL
[13]; 121187
  MIC: > 16 µg/mL
[14]; [18]
  MICantibiotic: 1
[14]; [19]
  MICcombo: 1 µg/mL
[15]; 92247
  MIC: 4 µg/mL
[15]; 110193
  MIC: 0.5 µg/mL
[15]; AB027
  MIC: 0.25 µg/mL
[15]; AB031
  MIC: 0.25 µg/mL
[15]; LAC-4
  MIC: 0.125 µg/mL
[6]; ATCC 25922, antibiotic alone (Supplementary Table 7)
  MICantibiotic: 0.125
[6]; ATCC 25922, antibiotic with dUSTBβP 3 at 8 μg/mL
  MICcombo: 0.031 µg/mL
[16]; 113250
  MIC: > 16 µg/mL
[16]; 113254
  MIC: > 16 µg/mL
[16]; 116381
  MIC: 1 µg/mL
[17]; 94393 (mcr-1 +)
  MIC: 4 µg/mL
[17]; 94474 (mcr-1 +)
  MIC: 16 µg/mL
[17]; 107115
  MIC: 0.125 µg/mL

## polymyxin B nonapeptide [PMBN]
A. baumannii ATCC 17978 [1]
  OM permeabilization, NPN fluorescence: increased fluorescence of NPN
E. coli ATCC 25922 [4]
  OM permeabilization, NPN fluorescence: increased fluorescence of NPN
